We go through two compounds from patent US20240018132A1, “5-HYDROXY-1,4-NAPHTHALENEDIONE FOR USE IN THE TREATMENT OF CANCER” (GODAVARI BIOREFINERIES LIMITED, priority 2020, published 2024).

One may read the pIC50 as −log10 of the IC50, conventionally taken in molar units.

SMILES strings stand for the structures. pIC50: −log10 of the molar value.

What all share (assay type): cell-based
One assay concerns MDAMB231. In words: In vitro antiproliferative assay (MTT assay), breast cancer cell line. The conditions noted are these: Homo sapiens, MDA-MB-231, MTT assay, MDAMB231. The method in brief: (§1)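 Growth inhibition determined by MTT (0.5 mg/ml, 4 h) following 48 h compound treatment of cells plated 24 h earlier at 37 °C, 5% CO2.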
The subject of another assay is PC3. The experiment in a line: In vitro antiproliferative assay (MTT assay), prostate cancer cell line. The note with it: Homo sapiens, PC-3, MTT assay, PC3. An outline of the steps:
as §1
(Tetrazolium dyes change colour on reduction, which living cells bring about.)

For another assay, the system named is MCF7. In words: In vitro antiproliferative assay (MTT assay), MCF7. The conditions noted are these: Homo sapiens, second value of MDAMB231/MCF7 column. How it is done: MTT assay is a simple and sensitive assay where, metabolic reducing activity of the cells is measured. The increase of this activity in time is taken as a parameter of cell growth. If treatment with a drug impairs this increase, the action is a consequence of growth inhibition, cell killing or both. […] All cell lines were cultured in a 37° C. incubator with a 5% CO2 environment. Compounds were dissolved in DMSO with a concentration of 0.1M (stock solution). Cells were seeded into 96-well plates at suitable plating efficiency.
In the MTT procedure, the cells were plated in 96 well plates as per predetermined plating efficiency (Table1). The plates were then incubated for 24 hrs in 5% CO2 atmosphere at 37° C. Appropriate concentrations of the drugs were then added to the plate and further incubation was carried out for 48 hrs (in 5% CO2 atmosphere at 37° C.). The assay plate was then centrifuged twice at 3000 rpm for 3 mins and supernatant was then discarded. 100 ul of MTT solution (0.5 mg/ml) was then added to each well of the plate and it was further incubated for 4 hrs (in 5% CO2 atmosphere at 37° C.) Following 4 hr incubation, the plate was then centrifuged twice, and supernatant was aspirated off very carefully. 200 ul of DMSO was then added to each well to solubilize. MTT crystals and mixed well by shaking the plate. […]

As to `O=C1C=C(Oc2ccc(F)c(F)c2)C(=O)c2c(OCCN3CCOCC3)cccc21` [Formula 83], the pIC50 with MDAMB231 was 6.07; in the assay with PC3, 6.14; in the assay with MCF7 it was 6.18.

With `O=C1C(Oc2ccc3c(c2)OCO3)=CC(=O)c2c(OCCCCN3CCOCC3)cccc21` [Formula 82], the results for the pIC50 in the assay on MDAMB231, with PC3 and with MCF7 were 6.01, 6.24 and 6.32, respectively.
